From the NIST ThermoML archive (doi:10.1021/je060271a)

Conditions: 343.15 K, Liquid, Vibrating tube method

CCCCCCCC(=O)OCC(COC(=O)CCCCCCC)(COC(=O)CCCCCCC)COC(=O)CCCCCCC [pentaerythritol tetraoctanoate]
Conditions	mass density [kg/m3]
4105.1 kPa	929.1
4132.4 kPa	929.2
4136.6 kPa	929.1
4140.2 kPa	929.1
4142.5 kPa	929
4144.7 kPa	929.2
4148 kPa	929.2
4149.4 kPa	929
4149.6 kPa	929
4163.9 kPa	929.2
4189.2 kPa	929.1
4213.5 kPa	929.1
4238.2 kPa	929.2
4268.5 kPa	929.1
4295 kPa	929.3
4321.4 kPa	929.2
4348.4 kPa	929.2
4373.8 kPa	929.1
4394.2 kPa	929.2
4418.5 kPa	929.1
4438.6 kPa	929.2
4459 kPa	929.3
4483.8 kPa	929.4
4504.7 kPa	929.3
4525.8 kPa	929.4
4546.8 kPa	929.4
4573.1 kPa	929.3
4596.8 kPa	929.5
4619 kPa	929.5
4641.5 kPa	929.4
4713.3 kPa	929.5
4740.6 kPa	929.4
4763.8 kPa	929.5
4787 kPa	929.6
4811.1 kPa	929.6
4839.6 kPa	929.6
4864.5 kPa	929.5
4889.8 kPa	929.7
4915.8 kPa	929.8
4945.5 kPa	929.6
4970.5 kPa	929.8
4996.2 kPa	929.6
5026.3 kPa	929.7
5052.8 kPa	929.8
5079.6 kPa	929.8
5112.2 kPa	929.7
5139.3 kPa	929.8
5167 kPa	929.8
5189.5 kPa	929.8
5228.6 kPa	929.8
5257.5 kPa	929.9
5286.4 kPa	929.8
5321 kPa	930
5350.7 kPa	930
5380.5 kPa	929.9
5410.7 kPa	929.9
5447.9 kPa	929.9
5480.3 kPa	930
5514 kPa	930.1
5545.6 kPa	930.2
5572.5 kPa	930.2
5593.9 kPa	930.1
5619.7 kPa	930.1
5642.1 kPa	930.2
5664.3 kPa	930.2
5686.4 kPa	930.2
5712.7 kPa	930.3
5735.2 kPa	930.2
5757.8 kPa	930.3
5785.1 kPa	930.2
5808.1 kPa	930.2
5832 kPa	930.3
5855.9 kPa	930.3
5884.4 kPa	930.4
5908.6 kPa	930.4
5933.3 kPa	930.4
5959.2 kPa	930.5
5984.1 kPa	930.3
6013.9 kPa	930.4
6039.1 kPa	930.4
6064.3 kPa	930.5
6090.1 kPa	930.4
6121 kPa	930.5
6147.5 kPa	930.5
6174.6 kPa	930.5
6205.9 kPa	930.5
6232.5 kPa	930.6
6260.2 kPa	930.7
6288.7 kPa	930.6
6316.5 kPa	930.6
6348.8 kPa	930.7
6376.3 kPa	930.6
6404.7 kPa	930.6
6439.7 kPa	930.7
6468.8 kPa	930.7
6497.8 kPa	930.7
6532.7 kPa	930.8
6563.4 kPa	930.8
6593.5 kPa	930.9
6624.3 kPa	930.8
6662.3 kPa	930.8
6694.9 kPa	930.9
6726.4 kPa	930.9
6757.3 kPa	930.9
6788.9 kPa	931.1
6826.4 kPa	931
6858.7 kPa	931.1
6891.5 kPa	931
6930.9 kPa	931.2
6964.4 kPa	931
6998.3 kPa	931.1
7038.9 kPa	931.2
7073.6 kPa	931.2
7109 kPa	931.2
7146.6 kPa	931.3
7184.3 kPa	931.3
7220.4 kPa	931.2
7264.4 kPa	931.2
7301.6 kPa	931.4
7339.6 kPa	931.5
7378.1 kPa	931.3
7424.8 kPa	931.3
7463.5 kPa	931.5
7503.2 kPa	931.5
7535.8 kPa	931.5
7575 kPa	931.6
7614.7 kPa	931.5
7673.1 kPa	931.6
7715 kPa	931.7
7765.2 kPa	931.6
7808 kPa	931.8
7853.1 kPa	931.7
7898.8 kPa	931.7
7950.2 kPa	931.8
7984.6 kPa	931.8
8150.9 kPa	931.9
8189.7 kPa	932
8222.6 kPa	932
8255.6 kPa	932
8295.8 kPa	932.1
8329.6 kPa	932.1
8363.2 kPa	932.1
8515 kPa	932.1
8550.2 kPa	932.2
8585.9 kPa	932.3
8629.7 kPa	932.3
8666.6 kPa	932.3
8703.3 kPa	932.4
8739.9 kPa	932.4
8784.7 kPa	932.5
8991.7 kPa	932.5
9031.4 kPa	932.6
9071.9 kPa	932.5
9120.5 kPa	932.6
9162.4 kPa	932.7
9204.8 kPa	932.7
9248.6 kPa	932.6
9301 kPa	932.7
9344.4 kPa	932.8
9387.6 kPa	932.8
9449 kPa	932.8
9480 kPa	933
9517.6 kPa	933
9549.6 kPa	933.1
9582.5 kPa	933
9620.6 kPa	932.9
9653.7 kPa	933.2
9687.4 kPa	933
9726.7 kPa	933.1
9760 kPa	933.1
9793.4 kPa	933.2
9827.7 kPa	933
9868.1 kPa	933.1
9902.1 kPa	933.2
9943.1 kPa	933.2
9978.4 kPa	933.4
10014 kPa	933.3
10058 kPa	933.4
10096 kPa	933.4
10138 kPa	933.4
10176 kPa	933.4
10207 kPa	933.3
10234 kPa	933.4
10256 kPa	933.5
10278 kPa	933.4
10305 kPa	933.6
10327 kPa	933.5
10349 kPa	933.5
10376 kPa	933.6
10422 kPa	933.8
10450 kPa	933.7
10474 kPa	933.6
10497 kPa	933.7
10520 kPa	933.7
10543 kPa	933.8
10572 kPa	933.6
10595 kPa	933.7
10618 kPa	933.7
10647 kPa	933.6
10671 kPa	933.7
10699 kPa	933.7
10723 kPa	933.8
10748 kPa	933.8
10777 kPa	933.8
10803 kPa	933.9
10827 kPa	933.9
10852 kPa	933.8
10881 kPa	933.9
10906 kPa	933.9
10936 kPa	934
10961 kPa	934
10987 kPa	933.9
11012 kPa	933.9
11042 kPa	934
11068 kPa	934
11099 kPa	934.1
11126 kPa	933.9
11153 kPa	934
11180 kPa	934.2
11206 kPa	934.2
11238 kPa	934.2
11264 kPa	934.2
11296 kPa	934.3
11323 kPa	934.3
11350 kPa	934.2
11383 kPa	934.3
11410 kPa	934.3
11438 kPa	934.3
11471 kPa	934.3
11499 kPa	934.3
11528 kPa	934.4
11561 kPa	934.4
11590 kPa	934.4
11618 kPa	934.4
11647 kPa	934.2
11710 kPa	934.4
11739 kPa	934.5
11774 kPa	934.4
11804 kPa	934.5
11834 kPa	934.4
11869 kPa	934.5
11900 kPa	934.6
11930 kPa	934.7
11966 kPa	934.6
11997 kPa	934.7
12027 kPa	934.6
12064 kPa	934.7
12095 kPa	934.7
12126 kPa	934.7
12163 kPa	934.8
12195 kPa	934.7
12227 kPa	934.8
12265 kPa	934.9
12296 kPa	934.8
12329 kPa	934.9
12362 kPa	934.8
12401 kPa	934.9
12434 kPa	935
12468 kPa	935
12507 kPa	935
12541 kPa	935
12575 kPa	935
12615 kPa	935.1
12649 kPa	935.2
12684 kPa	935.1
12725 kPa	935.1
12760 kPa	935.1
12797 kPa	935.2
12831 kPa	935.2
12873 kPa	935.3
12909 kPa	935.2
12944 kPa	935.3
12980 kPa	935.3
13024 kPa	935.5
13060 kPa	935.3
13096 kPa	935.4
13140 kPa	935.5
13177 kPa	935.5
13222 kPa	935.7
13261 kPa	935.6
13300 kPa	935.6
13339 kPa	935.6
13384 kPa	935.7
13423 kPa	935.6
13462 kPa	935.6
13508 kPa	935.7
13548 kPa	935.8
13587 kPa	935.6
13635 kPa	935.7
13675 kPa	935.7
13716 kPa	935.8
13807 kPa	936
13849 kPa	936
13893 kPa	936
13947 kPa	936
13993 kPa	936.1
